Laboratory results from patent US20090068243A1, “Novel formulations for delivery of antiviral peptide therapeutics” (priority 2007, published 2009).

Legend:
[1] = Thermal stability (Tm) by CD signal at 222 nm; format: physicochemical; settings: CD at 222 nm, maximum of first derivative of thermal transition
Description: Assessment of biophysical parameters included measurement of helicity and thermal stability. Helicity was assessed by circular dichroism (“CD”) as follows. Briefly, CD spectra were obtained using a spectrometer equipped with a thermoelectric temperature controller. The spectra was obtained at 25° C. with 0.5 nanometer (nm) steps from 200 to 260 nm, with a 1.5 nm bandwith, and a typical averaging time of 4 seconds/step. After the cell/buffer blank was subtracted, spectra were smoothed using a third-order least-squares polynomial fit with a conservative window size to give random residuals. Raw ellipticity values were converted to mean residue ellipticity using standard methods, and plotted was the wavelength (from 200 to 260 nm) versus [θ]×10−3 (degrees cm^2/dmol). Percent helicity values were then calculated using standard methods (usually expressed as percent helicity at 10 μM, 25° C.). Assessment of thermal stability was performed by monitoring the change in CD signal at 222 nm as temperature was raised in 2° C. steps, with 1 minute equilibration times. The stability for each sample (e.g., HIV fusion inhibitor peptide), as represented by the Tm value, is the temperature corresponding to the maximum value of the first derivative of the thermal transition.

HIV-IIIB = settings: 50% reduction in infectious virus titer
Excerpt: Assessment of biological properties included measurement of antiviral activity against HIV-1 strains. […] These assays score for reduction of infectious virus titer employing the indicator cell lines MAGI or the CCR5 expressing derivative cMAGI. Both cell lines exploit the ability of HIV-1 tat to transactivate the expression of a β-galactosidase reporter gene driven by the HIV-LTR. The β-gal reporter has been modified to localize in the nucleus and can be detected with the X-gal substrate as intense nuclear staining within a few days of infection. The number of stained nuclei can thus be interpreted as equal to the number of infectious virions in the challenge inoculum if there is only one round of infection prior to staining. […] In the MAGI and cMAGI assays, a 50% reduction in infectious titer (Vn/Vo=0.5) is significant, and provides the primary cutoff value for assessing antiviral activity (“IC50” is defined as the concentration of active ingredient resulting in a 50% reduction in infectious virus titer). […] The number of infected cells for each control and peptide dilution was determined with the CCD-imager, and then the IC50 was calculated (expressed in μg/ml).

584.000060 = system: 584.000060
Excerpt: (§1) Assessment of biological properties included measurement of antiviral activity against HIV-1 strains. […] These assays score for reduction of infectious virus titer employing the indicator cell lines MAGI or the CCR5 expressing derivative cMAGI. Both cell lines exploit the ability of HIV-1 tat to transactivate the expression of a β-galactosidase reporter gene driven by the HIV-LTR. The β-gal reporter has been modified to localize in the nucleus and can be detected with the X-gal substrate as intense nuclear staining within a few days of infection. The number of stained nuclei can thus be interpreted as equal to the number of infectious virions in the challenge inoculum if there is only one round of infection prior to staining. […] In the MAGI and cMAGI assays, a 50% reduction in infectious titer (Vn/Vo=0.5) is significant, and provides the primary cutoff value for assessing antiviral activity (“IC50” is defined as the concentration of active ingredient resulting in a 50% reduction in infectious virus titer). […] The peptide (in the respective dilution) was added to the cMAGI or MAGI cells, followed by the virus inocula; and 24 hours later, an inhibitor of infection and cell-cell fusion (e.g., SEQ ID NO:2 (enfuvirtide)) was added to prevent secondary rounds of HIV infection and cell-cell virus spread. The cells were cultured for 2 more days, and then fixed and stained with the X-gal substrate to detect HIV-infected cells. The number of infected cells for each control and peptide dilution was determined with the CCD-imager, and then the IC50 was calculated (expressed in μg/ml).
(§2) In particular, in vitro resistance comparison studies were performed between the novel SEQ ID NO:9 compound of interest and established antiviral agent SEQ ID NO:2, described in detail as follows: MT2 cells were infected with virus isolates (IIIB, 030, 060 and 098) and cultured in increasing concentrations of SEQ ID NO:2 (enfuvirtide) or SEQ ID NO:9 to select for resistance. The initial peptide concentration was approximately 2 times the IC50 of each peptide against the corresponding wild type isolate. Peptide concentrations were maintained by adding fresh peptide every 1-3 days. Cultures were monitored for cytopathic effect (CPE) using standard techniques and when maximal CPE was achieved, a small aliquot of virus was used for subsequent rounds of infection. Peptide concentrations were increased 2 to 4-fold depending on the length of time in culture when compared to the growth rate of wild type virus. During the course of selection, peptide-free virus stocks were also collected. Peptide-free virus stocks were characterized for gp41 genotypic changes by dideoxy sequencing chemistries and phenotypic susceptibility was determined using a cMAGI infectivity assay.

584.000098 = system: 584.000098
Excerpt: as §1, §2

584.000030 = system: 584.000030
Excerpt: as §1, §2

[2] = system: virus isolates (IIIB, 030, 060 and 098)
Excerpt: as §1, §2

IIIB = settings: starting virus isolate IIIB
Excerpt: as §1, §2

[3] = Stability in aqueous solution (PBS), peptide remaining in solution by HPLC; format: physicochemical; settings: 10 mg/ml in PBS, about pH 7.3 to 7.5, 37° C., time point of 1 week
[4] = Intravenous pharmacokinetics in cynomolgus monkeys; format: in vivo, cynomolgus monkeys (Macaca fasicularis)
Description: For determining pharmacokinetic properties, an HIV fusion inhibitor peptide or a base sequence from which an HIV fusion inhibitor peptide is derived was dosed intravenously in cynomolgus monkeys (Macaca fasicularis) (other animal models may be used for determining pharmacokinetic properties, as known in the art). At various times post-dose, blood samples were drawn and plasma isolated by centrifugation. Plasma samples were stored frozen until analysis by LC-MS (liquid chromatography/mass spectrometry) in the electrospray, positive-ion mode. An HIV fusion inhibitor or base sequence was eluted from a C18 or C8 HPLC column with a gradient of acetonitrile in a buffer of 10 mM ammonium acetate, pH 6.8. At the time of analysis, plasma samples were deproteinated with either two or three volumes of acetonitrile containing 0.5% formic acid. Duplicate calibration standards in cynomolgus plasma samples were prepared at the same time as the samples and analyzed before and after the samples containing either HIV fusion inhibitor peptide or base sequence. Pharmacokinetic properties were calculated from the plasma concentration-time data using either mono-exponential or bi-exponential mathematical models. Models were derived by non-linear least squares optimization. A 1/C^2 weighting of concentrations was used. The following equations were used to calculate area-under the plasma concentration vs. time curve (AUC), total body clearance (Cl), and terminal elimination half-life (t ½).
Where A and B are intercepts and a and b are the rate constants of the exponential equations describing the distribution and elimination phases, respectively. When mono-exponential models were used, the “A” and “a” properties were eliminated.
Cl=Dose/AUC (expressed in L/K/hr)
t½=0.6903/b (expressed in hr)

Ac-TTWEAWDRAIAEYAARIEALLRALQEQQEKNEAALREL-NH2 [SEQ ID NO:9, TTWEAWDRAIAEYAARIEALLRALQEQQEKNEAALREL]
Tm (° C.) [1]: 62 °C | Antiviral Activity (μg/ml) HIV-IIIB IC50 (HIV-IIIB): <0.10 µg/mL | Fold Change in IC50 (584.000060; starting virus isolate 584.000060): 26 | Ending IC50 (584.000060; starting virus isolate 584.000060, after selection): 0.208 µg/mL | Starting IC50 (584.000060; starting virus isolate 584.000060, before selection): 0.008 µg/mL | Fold Change in IC50 (584.000098; starting virus isolate 584.000098): 14 | Ending IC50 (584.000098; starting virus isolate 584.000098, after selection): 0.521 µg/mL | Starting IC50 (584.000098; starting virus isolate 584.000098, before selection): 0.037 µg/mL | Fold Change in IC50 (584.000030; starting virus isolate 584.000030): 4 | Ending IC50 (584.000030; starting virus isolate 584.000030, after selection): 0.113 µg/mL | Starting IC50 (584.000030; starting virus isolate 584.000030, before selection): 0.028 µg/mL | Fold Change in IC50 ([2]; Geometric Mean of four isolates): 24 | Ending IC50 ([2]; Geometric Mean of four isolates, after selection): 0.429 µg/mL | Starting IC50 ([2]; Geometric Mean of four isolates, before selection): 0.018 µg/mL | barrier to development of resistance in vitro, in words ([2]; compared to SEQ ID NO:2): higher barrier to development of resistance in vitro | Fold Change in IC50 (IIIB): 231 | Ending IC50 (IIIB; after selection): 2.768 µg/mL | Starting IC50 (IIIB; before selection): 0.012 µg/mL | peptide remaining detectable in solution [3]: ≥ 90% | biological half-life relative to base sequence, in words ([4]; comment on Table 2): increased biological half-life | clearance ([4]; cynomolgus monkey, plasma, iv, dosed intravenously): < 0.333 mL/min/kg | half-life ([4]; cynomolgus monkey, plasma, iv, dosed intravenously, read-out: Half-life (t ½; hr) (converted)): 12 h
